“Also recorded” adds a separate entry of the source.
What was measured:
BCL-xL/ABT-263 complex = target: T1, BCL-xL/ABT-263 complex (Homo sapiens, UniProt Q07817); test: Biolayer interferometry, Fab binding to BCL-xL in the presence of ABT-263; conditions: ABT-263 in place of ABT-737
T1 construct: C-terminally truncated BCL-xL (residues 2-215) with an N-terminal AviTag; made in house; host or cells: E. coli BL21(DE3), pMCSG7 vector
Method: Biolayer interferometery data were measured using an Octet RED384 instrument (ForteBio). Biotinylated BCL-xL was immobilized on a Streptavidin (SA) biosensor using a 200 nM solution. Serial dilutions of Fabs in kinetics buffer (PBS, pH 7.4, 0.05% Tween-20, 0.2% BSA, 10 μM biotin) with small molecule (1 μM), peptide (5 μM), or vehicle (0.05% DMSO) were used as analyte. Affinity (KD) and kinetic parameters (kon and koff) were calculated from a global fit (1:1) of the data using the Octet RED384 software.

[1] = test system: scAZ1-VPR and dCas9-BCL-xL in reporter HEK293T cell line containing the Gal4-UAS-Fluc operon; test: CRISPRa-mediated luciferase assay (scAZ1 AbCID gene circuit); format: cell-based
Method: For CRISPRa-mediated transcriptional activation, the reporter HEK293T cell line containing the Gal4-UAS-Fluc operon (Collaboration, O. R, Nat. Methods, 13:191-192 (2016)) was seeded at ˜0.5×10^6 cells/well in 6-well plates and cultured under 5% CO2 at 37° C. overnight. The cells were transfected with a plasmid encoding scAZ1-VPR and another plasmid encoding dCas9-BCL-xL and Gal4 sgRNA at a 1:1 ratio. The transfected cells were trypsinized and resuspended in fresh DMEM supplemented with 10% FBS 24 h after transfection. Cells were then aliquoted into a 96-well poly-D-lysine coated plate (Corning) and allowed to adhere for 24 h before 20 nM ABT-737 was added to induce CRISPRa activity. Cells were then further incubated for 48 h before evaluation of luciferase gene expression. To determine luciferase activity, cells were lysed with Bright-Glo Luciferase Assay substrate (Promega) and analyzed using an Infinite M200 PRO plate reader (Tecan). The luciferase activities were background-subtracted with a negative control (cells expressing full-length dCas9-VPR and PHOX2B negative-sgRNA), and normalized against a positive control (cells expressing full-length dCas9-VPR and Gal4 sgRNA). For investigation of cellular dose response, different concentrations of ABT-737 (0.014 nM, 0.041 nM, 0.12 nM, 0.37 nM, 1.1 nM, 3.3 nM, 10 nM, 30 nM, 90 nM, 270 nM) were added to the cells after cells were transfected and aliquoted to a 96-well plate.

[2] = test system: AbCID CAR (BCL-xL) Jurkat NFAT reporter cells co-cultured with K562 target cells; test: Quantification of CAR T-cell activation (NFAT-GFP, CD69, IL-2); format: cell-based; conditions: for NFAT-dependent GFP reporter expression / IL-2 secretion / CD69 expression: antibody 5 nM, 20 hours
Method: Jurkat cells expressing CARs were mixed with antigen positive (CD19^+) or antigen negative (CD19^−) K562 target cells at a ratio of 1:2. […] After overnight incubation at 37° C., cells were pelleted by centrifugation. NFAT-dependent GFP reporter expression was quantified by flow cytometry using a FACSCanto II (BD Biosciences). CD69 expression was quantified by immunofluorescence flow cytometry using a FACSCanto II (BD Biosciences) using an APC anti-human CD69 Antibody (Biolegend 310910). IL-2 secretion was quantified by collection of supernatants and analysis by ELISA using the BD Human IL-2 ELISA set as per manufacturer's protocol. All flow cytometry data analysis was performed using FlowJo software and all plots were generated using Prism software (GraphPad).

HEK293T cells = test: Cellular toxicity of ABT-737, CellTiter-Glo; format: cell-based; conditions: 24 h, viability relative to DMSO, read-out: IC50 (cell death)
Method: (§1) W T Jurkat, AbCID CAR Jurkat, Conventional CAR Jurkat, WT K562, CD19^+ K562, and HEK293T cells were plated in 96-well plates at ˜5000 cells per well. Each cell line was incubated with varying concentrations of ABT-737 (10 μM initial, 3-fold serial-dilutions, 8 times) or DMSO alone (0.1%). After 24 h, cell viability was measured using a CellTiter-Glo® Luminescent Cell Viability Assay (Promega) and the manufacturer's standard protocol. The percent viability relative to DMSO treatment was plotted and analyzed for each cell line using Prism software (GraphPad).

Jurkat cells = test: Cellular toxicity of ABT-737, CellTiter-Glo; format: cell-based; conditions: 24 h, viability relative to DMSO, read-out: IC50 (cell death)
Method: as §1

K562 cells = test: Cellular toxicity of ABT-737, CellTiter-Glo; format: cell-based; conditions: K562, 24 h, viability relative to DMSO; read-out: IC50 (cell death)
Method: as §1

platelets = conditions: Zhang et al. 2007; cited from earlier work
mice = conditions: mouse, in vivo; cited from earlier work
[3] = test system: T cells co-cultured with CD19+ K562 cells; test: AbCID-regulated inducible bispecific T cell engager, T cell activation; format: cell-based; conditions: for T-cell activation, CD69 expression / T-cell activation, NFAT signaling (GFP expression): antibody conjugated to anti-CD19, Bcl-2 conjugated to anti-CD3, addition of ABT-199
Excerpt: A representative embodiment of an AbCID-regulated inducible bispecific T cell engager is shown in FIG. 19A, having a first AbCID component conjugated to an anti-CD3 antibody and a second AbCID component conjugated to an antibody that recognizes a tumor specific antigen. Administration of the small molecule dimerizer allows for generation of the CID complex, resulting in recruitment of T cells to cancer cells expressing the tumor specific antigen.

T1 sequence (Q07817 2-215, one chain of several): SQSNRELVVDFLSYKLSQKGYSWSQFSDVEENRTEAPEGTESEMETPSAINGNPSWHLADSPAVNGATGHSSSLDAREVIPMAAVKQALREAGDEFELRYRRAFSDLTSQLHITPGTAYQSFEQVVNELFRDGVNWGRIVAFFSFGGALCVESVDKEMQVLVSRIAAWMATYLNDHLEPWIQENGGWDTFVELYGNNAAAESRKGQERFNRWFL

CC1(C)CCC(c2ccc(Cl)cc2)=C(CN2CCN(c3ccc(C(=O)NS(=O)(=O)c4ccc(N[C@H](CCN5CCOCC5)CSc5ccccc5)c(S(=O)(=O)C(F)(F)F)c4)cc3)CC2)C1 [ABT-263]
formation of a dimer (BCL-xL/ABT-263 complex): does not result in the formation of a dimer

CN(C)CC[C@H](CSc1ccccc1)Nc1ccc(S(=O)(=O)NC(=O)c2ccc(N3CCN(Cc4ccccc4-c4ccc(Cl)cc4)CC3)cc2)cc1[N+](=O)[O-] [ABT-737]
concentration range used to induce CRISPRa activity [1]: < 270 nM | EC50 ([1]; 48-hour induction, AbCID-gated system, read-out: EC50 of induction of luciferase expression): 8.9 ± 1 nM | luciferase expression ([1]; ABT-737 20 nM, 48 hours, Gal4 sgRNA): robust expression of luciferase | luciferase expression with a negative sgRNA ([1]; AbCID-gated system with a negative sgRNA): no increase in luciferase expression | concentration range used to induce AbCID CAR activity [2]: < 100 nM | T-cell activation by ABT-737 on its own ([2]; ABT-737 alone): not able to induce T-cell activation on its own | NFAT-dependent GFP reporter expression ([2]; CD19+ K562 target cells): dose-dependent activation of the NFAT pathway | IL-2 secretion ([2]; CD19+ K562 target cells, ELISA): dose-dependent secretion of IL-2 | CD69 expression ([2]; CD19+ K562 target cells, immunofluorescence flow cytometry): dose-dependent expression of CD69 | CD69 expression ([2]; CD19− K562 target cells): no expression was observed | IL-2 secretion ([2]; CD19− K562 target cells): no secretion was observed | NFAT-dependent GFP reporter expression ([2]; CD19− K562 target cells): not observed; also recorded: no activation was observed | IC50 (HEK293T cells): ~10000 nM | IC50 (Jurkat cells): ~2000 nM | IC50 (K562 cells): > 10000 nM | concentration observed to be toxic to platelets (platelets): low μM | tolerability in mice (mice): generally well tolerated by mice, except for platelet toxicity

B1: AZ21: Fab clone selected against Bcl-2 + ABT-199 complex (antibody)
heavy: EISEVQLVESGGGLVQPGGSLRLSCAASGFNLSYSSMHWVRQAPGKGLEWVASISPYSSYTYYADSVKGRFTISADTSKNTAYLQMNSLRAEDTAVYYCARGYWSFYGMDYWGQGTLVTVSSASTKGPSVFPLAPSSKSTSGGTAALGCLVKDYFPEPVTVSWNSGALTSGVHTFPAVLQSSGLYSLSSVVTVPSSSLGTQTYICNVNHKPSNTKVDKKVEPKSCDKTHTGGSHHHHHH
light: SDIQMTQSPSSLSASVGDRVTITCRASQSVSSAVAWYQQKPGKAPKLLIYSASSLYSGVPSRFSGSRSGTDFTLTISSLQPEDFATYYCQQYYAHYLFTFGQGTKVEIKRTVAAPSVFIFPPSDSQLKSGTASVVCLLNNFYPREAKVQWKVDNALQSGNSQESVTEQDSKDSTYSLSSTLTLSKADYEKHKVYACEVTHQGLSSPVTKSFNRGECGGSDYKDDDDK
T-cell activation, CD69 expression [3]: increased expression of CD69 | T-cell activation, NFAT signaling (GFP expression) [3]: activation of NFAT signaling | level of T-cell activation (NFAT activation) versus ABT-199 concentration ([3]; titration of ABT-199): tunable by titration of ABT-199 concentration

B2: AZ35: Fab clone selected against Bcl-2 + ABT-199 complex (antibody)
heavy: EISEVQLVESGGGLVQPGGSLRLSCAASGFNLYYSSIHWVRQAPGKGLEWVAYISSYSGYTYYADSVKGRFTISADTSKNTAYLQMNSLRAEDTAVYYCARGGWYWASGSYYGAMDYWGQGTLVTVSSASTKGPSVFPLAPSSKSTSGGTAALGCLVKDYFPEPVTVSWNSGALTSGVHTFPAVLQSSGLYSLSSVVTVPSSSLGTQTYICNVNHKPSNTKVDKKVEPKSCDKTHTGGSHHHHHH
light: SDIQMTQSPSSLSASVGDRVTITCRASQSVSSAVAWYQQKPGKAPKLLIYSASSLYSGVPSRFSGSRSGTDFTLTISSLQPEDFATYYCQQYGYSVLITFGQGTKVEIKRTVAAPSVFIFPPSDSQLKSGTASVVCLLNNFYPREAKVQWKVDNALQSGNSQESVTEQDSKDSTYSLSSTLTLSKADYEKHKVYACEVTHQGLSSPVTKSFNRGECGGSDYKDDDDK
T-cell activation, CD69 expression [3]: increased expression of CD69 | T-cell activation, NFAT signaling (GFP expression) [3]: activation of NFAT signaling

B3: AZ34: Fab clone selected against Bcl-2 + ABT-199 complex (antibody)
heavy: EISEVQLVESGGGLVQPGGSLRLSCAASGFNIYYSSMHWVRQAPGKGLEWVASISSYSGSTSYADSVKGRFTISADTSKNTAYLQMNSLRAEDTAVYYCARGGWFWGSGGYSSAFDYWGQGTLVTVSSASTKGPSVFPLAPSSKSTSGGTAALGCLVKDYFPEPVTVSWNSGALTSGVHTFPAVLQSSGLYSLSSVVTVPSSSLGTQTYICNVNHKPSNTKVDKKVEPKSCDKTHTGGSHHHHHH
light: SDIQMTQSPSSLSASVGDRVTITCRASQSVSSAVAWYQQKPGKAPKLLIYSASSLYSGVPSRFSGSRSGTDFTLTISSLQPEDFATYYCQQHHSLITFGQGTKVEIKRTVAAPSVFIFPPSDSQLKSGTASVVCLLNNFYPREAKVQWKVDNALQSGNSQESVTEQDSKDSTYSLSSTLTLSKADYEKHKVYACEVTHQGLSSPVTKSFNRGECGGSDYKDDDDK
T-cell activation, CD69 expression [3]: increased expression of CD69 | T-cell activation, NFAT signaling (GFP expression) [3]: activation of NFAT signaling

From patent US11939379B2 (The Regents of the University of California, priority 2017, dated 2024)
